Entries after “also recorded” stand apart in the source; their conditions may differ. Where two headings read alike, the source gives them in different places.
Tests used:
[1] = tested on: Cryopreserved human hepatocytes; test: Human Hepatocyte Intrinsic Clearance Assay; conditions: for human hepatocyte clearance (comparison): comparison between Examples, in words
Protocol: (§4) Cryopreserved human hepatocytes pooled from 20 donors (Celsis-In Vitro Technologies, Baltimore, Md.) were used to determine the intrinsic clearance of the Example compounds. […] At 0, 5, 15, 30, 60 and 90 minutes, aliquots of incubation mixture were removed from the incubator, and quenched with acetonitrile containing 0.1% (v/v) formic acid and internal standard (7-hydroxy-4-trifluoromethylcoumarin). Samples were then centrifuged at 5700 rpm (6100 g) at 4° C. for 10 minutes. Supernatants were transferred to a sample plate, mixed with equal volume of water containing 0.1% formic acid, and analyzed using LC-MS/MS.
(§5) The LC-MS/MS system for sample analysis consisted of a reverse phase UHPLC (Shimadzu Model Nexera LC-30AD, Shimadzu Scientific Instruments, Inc, Columbia, Md.) interfaced with an API4000 triple quadruple mass spectrometer operating in negative ion mode (Applied Biosystems, Inc., Foster City, Calif.). Chromatographic separation was achieved using a Phenomenex Kinetex Luna C18 column (Phenomenex, Torrance, Calif.) (2×50 mm, 2.6 μm) maintained at 55° C. with a mobile phase flow rate of 1.2 mL/min. The mobile phase consisted of 0.1% formic acid in water (A) and 0.1% formic acid in acetonitrile (B).

[2] = Human Hepatocyte Intrinsic Clearance Assay; conditions: human, cryopreserved human hepatocytes pooled from 20 donors
Protocol: as §4, §5

CYP1A2, CYP2B6 or CYP3A4 = test: Human Hepatocyte CYP1A2, CYP2B6, and CYP3A4 Induction Assay (summary); format: in vitro ADME; conditions: human hepatocytes, mRNA
Excerpt: (§1) Human Hepatocyte CYP1A2, CYP2B6, and CYP3A4 Induction Assay
(§2) Materials. […] Insulin-transferrin-selenium supplement (ITS), penicillin-streptomycin-L-glutamine supplement (PSG), fetal bovine serum (FBS), phosphate-buffered saline (PBS), cryopreserved hepatocyte recovery medium (CHRM), and three individual-donor lots of cryopreserved adult human hepatocytes were obtained from Life Technologies (Grand Island, N.Y.). Collagen I-precoated 24-well plates and hydroxybupropion were acquired from Becton Dickinson Labware (Bedford, Mass.). Branched DNA (b-DNA) probe sets for human CYP1A2, CYP2B6, CYP3A4, and 18S rRNA and the Panomics Discovery XL Kit were purchased from Affymetrix Inc. (Santa Clara, Calif.).
In vitro Methods. […] Individual lots were plated in collagen-coated 24-well plates with approximately 0.38×10^6 cells/well. […] After the attachment period, the plating medium and unattached cells were removed by aspiration and 37° C. HMM was added to each well (0.5 mL/well), and the cells were incubated overnight. On Day 2, the medium was aspirated and fresh 37° C. HMM was reapplied to the cells for an overnight acclimation period. […] The Example compounds to be tested were prepared in DMSO stock solutions resulting in final incubation concentrations of 0.1% DMSO. Example compound treatment was maintained for a total of 48 hours. […] P450 enzyme activities were subsequently determined by the addition of marker substrates phenacetin (100 μM, CYP1A2 probe substrate, 30-minute incubation) bupropion hydrochloride (100 μM, CYP2B6 probe substrate, 20-minute incubation), and testosterone (200 μM, CYP3A4 probe substrate, 14-minute incubation) which were dissolved in KHB (37° C., pH 7.4, 0.5 mL/well). After the substrate incubation periods, the buffers were collected and stored at −80° C. until analyzed. […]
(§3) Data Reporting. For each P450 isoform for mRNA analysis, fold increases over vehicle control (with vehicle control set to 1.0) were calculated for positive controls and each treatment group for the Example compounds.

CYP3A4 = conditions: human, 48 h; for CYP3A4 mRNA induction: hepatocytes
Excerpt: as §1, §2
In vitro Methods. […] Individual lots were plated in collagen-coated 24-well plates with approximately 0.38×10^6 cells/well. […] After the attachment period, the plating medium and unattached cells were removed by aspiration and 37° C. HMM was added to each well (0.5 mL/well), and the cells were incubated overnight. On Day 2, the medium was aspirated and fresh 37° C. HMM was reapplied to the cells for an overnight acclimation period. […] The Example compounds to be tested were prepared in DMSO stock solutions resulting in final incubation concentrations of 0.1% DMSO. Example compound treatment was maintained for a total of 48 hours. On Day 5, the medium was aspirated, and the hepatocytes were gently washed one time with KHB (37° C., pH 7.4). The KHB was removed, and a second application of KHB was administered (0.5 mL/well). The hepatocytes were placed back into the incubator and allowed to acclimate to the KHB for 10 minutes. P450 enzyme activities were subsequently determined by the addition of marker substrates phenacetin (100 μM, CYP1A2 probe substrate, 30-minute incubation) bupropion hydrochloride (100 μM, CYP2B6 probe substrate, 20-minute incubation), and testosterone (200 μM, CYP3A4 probe substrate, 14-minute incubation) which were dissolved in KHB (37° C., pH 7.4, 0.5 mL/well). After the substrate incubation periods, the buffers were collected and stored at −80° C. until analyzed. Hepatocytes used for mRNA analysis were washed once in PBS (0.5 mL/well, 25° C., containing calcium and magnesium) and protocol-prepared b-DNA lysis buffer was added to each well (0.5 mL/well). The hepatocytes were lysed by gently pipetting the lysis buffer up and down five times, and the plates were stored at −80° C. until analysis.
P450 mRNA Analysis. CYP1A2, CYP2B6, and CYP3A4 mRNA content was determined with branched DNA (b-DNA) signal amplification technology using the Panomics Discover XL Kit with assays performed according to the manufacturer's instructions. b-DNA probe sets containing capture extender, label extender, and blocking probes for human CYP1A2, CYP2B6, CYP3A4, and 18S rRNA were purchased from Affymetrix Inc. Plate washing steps were performed on an Elx405 automated microplate washer (BioTek Instruments Inc., Winooski, Vt.), and luminescence was analyzed on a Luminoskan Ascent microplate luminometer (Thermo Lab Systems, Helsinki, Finland). P450 mRNA levels were normalized to the mRNA levels of the housekeeping gene 18S rRNA.
as §3

CC(C)(C)S(=O)(=O)C[C@H](C1CC1)N1C(=O)[C@@](C)(CC(N)=O)C[C@H](c2cccc(Cl)c2)[C@H]1c1ccc(Cl)cc1 [Example 2, 2-((3R,5R,6S)-1-((S)-2-(tert-Butylsulfonyl)-1-cyclopropylethyl)-5-(3-chlorophenyl)-6-(4-chlorophenyl)-3-methyl-2-oxopiperidin-3-yl)acetamide]
human hepatocyte clearance (comparison) [1]: hepatocyte clearance increases
hepatocyte CLint at 500 nM [2]: 26 µL/min/1e6 cells

CC(C)(C)S(=O)(=O)C[C@H](C1CC1)N1C(=O)[C@@](C)(CC(=O)Nc2ccccc2)C[C@H](c2cccc(Cl)c2)[C@H]1c1ccc(Cl)cc1 [Example 3, 2-((3R,5R,6S)-1-((S)-2-(tert-Butylsulfonyl)-1-cyclopropylethyl)-5-(3-chlorophenyl)-6-(4-chlorophenyl)-3-methyl-2-oxopiperidin-3-yl)-N-phenylacetamide]
human hepatocyte clearance (comparison) [1]: further increases
hepatocyte CLint at 500 nM [2]: 28 µL/min/1e6 cells
Induction Assay Summary (CYP1A2, CYP2B6 or CYP3A4): CYP3A4
mRNA % of Positive Control (Donor One) (CYP3A4; 0.1 μM): 1.71%
mRNA % of Positive Control (Donor Three) (CYP3A4; 0.1 μM): 0.15%
mRNA % of Positive Control (Donor Two) (CYP3A4; 0.1 μM): 4.95%
mRNA % of Positive Control (Donor One) (CYP3A4; 1 μM): 17.15%
mRNA % of Positive Control (Donor Three) (CYP3A4; 1 μM): 3.21%
mRNA % of Positive Control (Donor Two) (CYP3A4; 1 μM): 10.38%
mRNA % of Positive Control (Donor One) (CYP3A4; 10 μM): 37.77%
mRNA % of Positive Control (Donor Three) (CYP3A4; 10 μM): 37.60%
mRNA % of Positive Control (Donor Two) (CYP3A4; 10 μM): 45.78%
CYP3A4 mRNA induction (CYP3A4): exhibit CYP3A4 mRNA induction

CC(C)(C)S(=O)(=O)C[C@H](C1CC1)N1C(=O)[C@@](C)(CC(=O)O)C[C@H](c2cccc(Cl)c2)[C@H]1c1ccc(Cl)c(F)c1 [Example 4, 2-((3R,5R,6S)-1-((S)-2-(tert-Butylsulfonyl)-1-cyclopropylethyl)-6-(4-chloro-3-fluorophenyl)-5-(3-chlorophenyl)-3-methyl-2-oxopiperidin-3-yl)acetic acid]
human hepatocyte clearance (comparison) [1]: higher human hepatocyte clearance than the compound of Example 1
hepatocyte CLint at 500 nM [2]: 26 µL/min/1e6 cells
Induction Assay Summary (CYP1A2, CYP2B6 or CYP3A4): None
mRNA % of Positive Control (Donor One) (CYP3A4; 0.1 μM): 1.62%
mRNA % of Positive Control (Donor Three) (CYP3A4; 0.1 μM): 0.42%
mRNA % of Positive Control (Donor Two) (CYP3A4; 0.1 μM): 2.30%
mRNA % of Positive Control (Donor One) (CYP3A4; 1 μM): 2.96%
mRNA % of Positive Control (Donor Three) (CYP3A4; 1 μM): 0.47%
mRNA % of Positive Control (Donor Two) (CYP3A4; 1 μM): 7.29%
mRNA % of Positive Control (Donor One) (CYP3A4; 10 μM): 10.14%
mRNA % of Positive Control (Donor Three) (CYP3A4; 10 μM): 3.07%
mRNA % of Positive Control (Donor Two) (CYP3A4; 10 μM): 12.51%

COc1cc(NC(=O)C[C@@]2(C)C[C@H](c3cccc(Cl)c3)[C@@H](c3ccc(Cl)c(F)c3)N([C@H](CS(=O)(=O)C(C)(C)C)C3CC3)C2=O)ccc1C(=O)O [Example 5, 4-(2-((3R,5R,6S)-1-((S)-2-(tert-Butylsulfonyl)-1-cyclopropylethyl)-6-(4-chloro-3-fluorophenyl)-5-(3-chlorophenyl)-3-methyl-2-oxopiperidin-3-yl)acetamido)-2-methoxybenzoic acid]
Human hepatocyte CLint assay (μL/min/10^6 cells) ([1]; 500 nM, pooled human hepatocytes 1 million cells/mL): 1.45 μL/min/10^6 cells
human hepatocyte clearance (comparison) [1]: lower human hepatocyte clearance than either of the compounds of Examples 1 or 4; also recorded: lower human hepatocyte clearance than any of Examples 1 to 4
hepatocyte CLint at 500 nM [2]: 1.45 µL/min/1e6 cells
Induction Assay Summary (CYP1A2, CYP2B6 or CYP3A4): None
mRNA % of Positive Control (one donor) (CYP3A4; 0.1 μM): −1.49%
mRNA % of Positive Control (one donor) (CYP3A4; 1 μM): 0.34%
mRNA % of Positive Control (one donor) (CYP3A4; 10 μM): 0.98%
CYP3A4 mRNA induction (CYP3A4): does not show CYP3A4 mRNA induction

— US8952036B2, “Benzoic acid derivative MDM2 inhibitor for the treatment of cancer” (Amgen Inc., priority 2013, dated 2015)
